Reference: patent US8680253B2 (OliPass Corporation, priority 2008, dated 2014)
{Fam-L(1)L(1)} = N-terminal fluorescein (Fam) label attached through two L(1) linkers; {Lys-NH2} = C-terminal lysine amide

How the values were obtained:
HeLa cells = test: Cell penetration of fluorescein-tagged PNA oligomers, confocal fluorescence microscopy; assay type: cell-based, human; conditions: 40× objective
Experimental: (§1) In order to evaluate the cell penetration ability of PNA oligomers of this invention, cancer cells of human origin were treated with PNA oligomers covalently tagged with fluorescein. The applied method is provided in brief as follows.
(§2) To each cover glass (autoclaved) placed in each well of a 24-well plate, were seeded 20,000˜100,000 cells depending on the growth rate of the cell line used, and the cells were cultured at 37° C. and 5% CO2 for 16 to 24 h. Then the medium was replaced with 500 μl fresh Opti-MEM medium (with or without 1% FBS), to which was added an aliquot of aq stock solution of a PNA oligomer covalently tagged with fluorescein. After cells were cultured for a designated interval, the cells were washed with PBS, and fixed by incubating in 3.7% or 4% paraformaldehyde. The cells were thoroughly washed several times with PBS or PBS containing 0.1% Tween-20. Then the cover glass was mounted onto a slide glass using a drop of mounting solution and sealed with nail polish for confocal fluorescence microscopy. Fluorescence images were taken either on a Zeiss LSM 510 confocal microscope (Germany) at 63× objective or on a Nikon C1Si confocal microscope at 40× objective.

MCF-7 cells = test: as above; assay type: cell-based, human; conditions: 2.5 μM, 0.5 and 1 h, without FBS, 63× objective
Experimental: as §1, §2

A549 cells = test: as above; assay type: cell-based, human; conditions: 2 μM, 24 h, without FBS, 40× objective
Experimental: as §1, §2

JAR cells = test: as above; assay type: cell-based, human; conditions: 2 μM, 24 h, without FBS, 40× objective
Experimental: as §1, §2

apoB-100 = conditions: a certain population of atherosclerosis patients; cited from earlier work

Fam-L(1)L(1)-TC(1O3)T-CC(1O3)C-AGC(1O3)-GTG-C(1O3)GC-C(1O3)AT-Lys-NH2 (TCTCCCAGCGTGCGCCAT; Fam-L(1)L(1) label, modified PNA, Lys-NH2, chemistry not fully specified) [Oligo 6, fluorescein-tagged modified PNA oligomer]
cell penetration, fluorescence intensity (HeLa cells; 1 μM, 6 or 24 h, with 1% FBS): fluorescence intensity is clear and becomes intense over 24 h
cell penetration, fluorescence intensity (MCF-7 cells): fluorescence intensity is clear and becomes intense over 1 h

Fam-L(1)L(1)-TCT-CCC-AGC-GTG-CGC-CAT-Lys-NH2 (TCTCCCAGCGTGCGCCAT; all peptide nucleic acid (PNA), 5' {Fam-L(1)L(1)}, 3' {Lys-NH2}) [Oligo 7, fluorescein-tagged 'unmodified' PNA oligomer, reference compound]
cell penetration, fluorescence intensity (MCF-7 cells): fluorescence intensity is faint

Fam-L(2)-TT-C(1O2)AT-A(5)GT-A(5)TA-AG(5)T-Lys-NH2 (TTCATAGTATAAGT; Fam-L(2) label, modified PNA, Lys-NH2, chemistry not fully specified) [Oligo 22, fluorescein-tagged modified PNA oligomer]
cell penetration, fluorescence intensity (A549 cells): good cell penetration
cell penetration, fluorescence intensity (HeLa cells; 2 μM, 24 h, without FBS): good cell penetration
cell penetration, fluorescence intensity (JAR cells): good cell penetration

Mipomersen
clinical activity (apoB-100): due clinical activity
